In patent US20230192764A1, “NOVEL DOPAMINE PRECURSORS” (Yissum Research Development Company of the Hebrew …, priority 2018, published 2023):
Where “and” joins values, the source holds several entries; their conditions need not be identical. Equal entries are not always repeated.

Tests used:
[1] = test system: human neuroblastoma cells (SH-SY5Y); assay: Viability of SH-SY5Y cells after auranofin (AuF) challenge, methylene blue staining; format: cell-based; details: SH-SY5Y pre-treated with 5 µM AuF 30 min, washed, compound added, viability 24 h later
Method: Viability of cells pre-treated with 5 µM AuF for 30 min, washed and later exposed to increasing concentrations of SD-444, was determined 24 h later.
A) The anti-apoptotic activity of SD-444 was tested on human neuronal cells SH-SY5Y. The cells were challenged by auranofin (AuF) that induces cellular stress by selectively blocking the thioredoxin reductase activity.
SH-SY5Y cells were plated on 96-well plates and treated with AuF in different concentrations for 30 min. Then the cells were washed with PBS and treated as indicated. Twenty-four hours later, the cells were fixed with glutaraldehyde in final concentration of 0.5% for 10 min. Cells were washed 3 times with DDW dried overnight, and washed once with borate buffer (0.1 M, pH 8.5). The fixed cells were stained with 200 µl of 1% methylene blue dissolved in borate buffer for 1 h. After extensive washing and drying, the color was extracted with 200 µl of 0.1 M HCl for 1 h at 37° C. and absorbance was read in spectrophotometer at 630 nm.

p38MAPK phosphorylation = assay: AuF-induced phosphorylation of p38MAPK in SH-SY5Y cells, western blot; format: cell-based, human
Method: Cells were treated with 10 µM AuF with or without SD-444. Phosphorylation was determined by western blot analysis. The amount of each band was quantitated by densitometry and plotted with a linear regression program normalized with β catenin (b-cat).
(§1) In the assay, twenty to thirty micrograms of protein samples were loaded on 10-12% SDS-PAGE gels. The proteins were then transferred electrophoretically to nitrocellulose (Whatman, Germany). The blots were blocked by incubation for 1 h at RT in TBS-T (25 mM Tris-HCl pH 7.4, 0.9% NaCl and 0.02% Tween-20) with 4% Difco skim milk (BD, USA), and incubated over-night at 4° C. with the primary antibody: p-p38^MAPK (Thr180/Tyr182), rabbit mAb; p38, rabbit Ab.

JNK phosphorylation = assay: AuF-induced phosphorylation of JNK in SH-SY5Y cells, western blot; format: cell-based, human
Method: SH-SY5Y cells were treated with 10 µM AuF with or without SD-444. Phosphorylation was determined by western blot analysis. The amount of each band was quantitated by densitometry and plotted with a linear regression program normalized to total JNK.
as §1
In the assay, twenty to thirty micrograms of protein samples were loaded on 10-12% SDS-PAGE gels. The proteins were then transferred electrophoretically to nitrocellulose (Whatman, Germany). The blots were blocked by incubation for 1h at RT in TBS-T (25 mM Tris-HCl pH 7.4, 0.9% NaCl and 0.02% Tween-20) with 4% Difco skim milk (BD, USA), and incubated over-night at 4° C. with the primary antibody: p-JNK^MAPK, and β-catenin.

[2] = Body weight monitoring in rotenone-treated rats; format: in vivo, Sprague Dawley rats; details: for Weight: individual rat, listed as SD
Method: (§2) 1-SD (Rotenone + SD); 2 - SDA (Rotenone + SDA); 3 - Control (Rotenone); 4 -Naive. The experimental groups were comprised of 6 animals for treated groups (1-3) and 2 animals in naive group (4). Rotenone was administrated 3.0 mg/kg intraperitoneally (IP) once a day in the morning (days 1-9). SD 33 mg/kg and SDA 33 mg/kg were administrated intraperitoneally once a day in the afternoon (days 1-9).
Animals weight was measured before initiation of treatment (day 0), on days 4,7, 9 during the experiment and on termination day 11. On day 11, animals were sacrificed and brains were harvested for further histopathological analysis.
(§3) IP administration: Rotenone was administrated to groups 1-3. Rotenone was injected intraperitoneally at a dose 3.0 mg/kg once a day in the morning (days 1-9). SD and SDA was administrated both at a dose of 33 mg/kg and were injected intraperitoneally once a day in the afternoon (days 1-9). Group number 4 was untreated, and remained as a naive group.

[3] = test system: Rotenone -induced model of Parkinson's disease (PD) in rats; assay: Rat rearing behavior (cylinder) test, rotenone model; format: in vivo, Sprague Dawley rats; details: for Cylinder rise and touch (number of rears in 2 min): individual rat, listed as SD
Method: as §2
(§4) Rearing behavior, rotarod and beam walk tests were performed before initiation of treatment (day 0) as well as on days 4, 8 and 10 of the experiment.
as §3
Animals were placed in a clear glass cylinder (40 cm high and 20 cm diameter) and number of rears in 2 min was observed. Rear was considered as animals raised their hands above the shoulder and made contact with the wall of cylinder with their forelimb.

[4] = test system: Rotenone -induced model of Parkinson's disease (PD) in rats; assay: Rotarod behavior assay, rotenone model; format: in vivo, Sprague Dawley rats; details: for R.R (rotarod): individual rat, listed as SD
Method: as §2, §4, §3
The test was used to evaluate motor coordination and balance. Apparatus was set to accelerate from 4 to 40 rpm in 300 s, and animals from same cage are placed in separate lanes on rod initially rotating at 4 rpm.

[5] = test system: Rotenone -induced model of Parkinson's disease (PD) in rats; assay: Rat beam walk test, rotenone model; format: in vivo, Sprague Dawley rats; details: for beam end time: individual rat, listed as SD
Method: as §2, §4, §3
Animals were gently placed on 1 m long narrow aluminum beam facing one of the ends and allowed to walk to the end of the beam.

[6] = average n=6, day 0 (before treatment)
[7] = day 0 (before treatment), rotenone 3 mg/kg + compound 33 mg/kg IP
[8] = rats, rotenone 3.0 mg/kg IP + compound 33 mg/kg IP, days 1-9

Structure (SMILES): CC(=O)NC(CS)C(=O)NC(Cc1cccc(O)c1O)C(=O)NC(CS)C(N)=O (stereo not shown) [SD-444, Acetyle-Cys-2,3 dihydroxyphenylalanin-Cys- amide]
- neuronal cell-viability after AuF [1]: partially restored
- neuronal cell-viability after AuF ([1]; listed as SD): increase viability
- concentration at which significant reduction in p38 activation is seen (p38MAPK phosphorylation; 10 µM AuF, western blot): 30 µM
- p38 phosphorylation (AuF-triggered) (p38MAPK phosphorylation; summary statement): inhibit
- concentration at which significant reduction in JNK activation is seen (JNK phosphorylation; 10 µM AuF, western blot): 10 µM
- JNK phosphorylation (AuF-triggered) (JNK phosphorylation; summary statement): inhibit
- Weight, group average [2, 6]: 304.83 gr
- Weight, group average ([2]; average n=6, day 4): 299.83 gr
- Weight, group average ([2]; average n=6, day 7): 294.17 gr
- Weight, group average ([2]; average n=6, day 9): 290.17 gr
- Weight, group average ([2]; average n=6, day 11): 283.17 gr
- Weight [2, 7]: 300 gr (2×) and 307 gr and 294 gr and 315 gr and 313 gr
- Weight ([2]; day 4, rotenone 3 mg/kg + compound 33 mg/kg IP): 299 gr (2×) and 296 gr and 290 gr and 310 gr and 305 gr
- Weight ([2]; day 7, rotenone 3 mg/kg + compound 33 mg/kg IP): 298 gr and 281 gr and 286 gr and 305 gr and 294 gr and 301 gr
- Weight ([2]; day 9, rotenone 3 mg/kg + compound 33 mg/kg IP): 295 gr and 285 gr and 280 gr and 298 gr and 286 gr and 297 gr
- Weight ([2]; day 11, rotenone 3 mg/kg + compound 33 mg/kg IP): 290 gr (2×) and 278 gr and 284 gr and 283 gr and 274 gr
- Cylinder rise and touch, group average [3, 6]: 12.33
- Cylinder rise and touch, group average ([3]; average n=6, day 4): 14.00
- Cylinder rise and touch, group average ([3]; average n=6, day 8): 12.33
- Cylinder rise and touch, group average ([3]; average n=6, day 10): 13.00
- Cylinder rise and touch (number of rears in 2 min) [3, 7]: 13 (3×) and 8 and 18 and 9
- Cylinder rise and touch (number of rears in 2 min) ([3]; day 4): 22 and 9 and 12 and 13 (2×) and 15
- Cylinder rise and touch (number of rears in 2 min) ([3]; day 8): 9 and 10 (2×) and 18 and 15 and 12
- Cylinder rise and touch (number of rears in 2 min) ([3]; day 10): 16 and 13 and 17 and 9 and 15 and 8
- Cylinder test, maintaining locomotor activity in Rotenone-treated rats [3, 8]: very effective
- R.R (rotarod), group average [4, 6]: 283.33 s
- R.R (rotarod), group average ([4]; average n=6, day 4): 275.00 s
- R.R (rotarod), group average ([4]; average n=6, day 8): 256.67 s
- R.R (rotarod), group average ([4]; average n=6, day 10): 240.50 s
- R.R (rotarod) [4, 7]: 274 s and 280 s and 288 s and 300 s and 291 s and 267 s
- R.R (rotarod) ([4]; day 4): 280 sec and 268 sec and 300 sec (2×) and 247 sec and 255 sec
- R.R (rotarod) ([4]; day 8): 249 s and 251 s and 282 s and 267 s and 254 s and 237 s
- R.R (rotarod) ([4]; day 10): 248 s and 255 s and 258 s and 266 s and 224 s and 192 s
- rotarod test, motor dysregulation mediated by rotenone [4, 8]: significantly reversed
- beam end time, group average [5, 6]: 11.33 s
- beam end time, group average ([5]; average n=6, day 4): 20.17 s
- beam end time, group average ([5]; average n=6, day 8): 22.00 s
- beam end time, group average ([5]; average n=6, day 10): 22.67 s
- beam end time [5, 7]: 10 sec (2×) and 19 sec and 5 sec and 8 sec and 16 sec
- beam end time ([5]; day 4): 31 s and 13 s and 15 s and 6 s and 38 s and 18 s
- beam end time ([5]; day 8): 23 s and 22 s and 18 s and 16 s and 21 s and 32 s
- beam end time ([5]; day 10): 43 s and 23 s and 17 s and 12 s and 27 s and 14 s
- Walk-beam test, reversal of rotenone induced imbalance [5, 8]: very effective
